{"source": "paper PMC10787893", "about": "“Expression and characterization of the new antimicrobial peptide AP138L-arg26 anti Staphylococcus aureus” (Applied Microbiology and Biotechnology, 2024)", "key": {"S. aureus CVCC 546 [1]": {"tested_on": "S. aureus CVCC 546", "assay": "SYTO9/PI membrane integrity assay", "assay_type": "cell-based, Staphylococcus aureus", "conditions": "2 × MIC, 37 °C, 1 h; 1 × 10^9 CFU/mL; fluorescence microscopy", "text": "To explore the disruption of bacterial cell membranes by the AP138L-arg26, a SYTO9/PI kit was used to detect the integrity of cell membranes (L7007 LIVE/DEAD^R BacLight™ Bacerial Viability Kits). The unique feature of this kit is that SYTO9 alone can pass through integral cell membranes, while PI can only penetrate damaged cell membranes. […] Finally, the results were observed using fluorescence microscopy."}, "S. aureus ATCC 43300": {"tested_on": "S. aureus ATCC 43300", "assay": "Post-antibiotic effect (PAE) assay", "assay_type": "cell-based, Staphylococcus aureus", "text": "The method of PAE of AP138L-arg26 against MRSA ATCC 43300 or S. aureus CVCC 546 was described previously (Wang et al. [2018]). The formula is PAE = T − C (T is the time required for the number of colonies in the sample treatment group to increase by tenfold, and C is the time required for the untreated group)."}, "S. aureus CVCC 546 [2]": {"tested_on": "S. aureus CVCC 546", "assay": "Potassium ion (K+) leakage, ICP-MS", "assay_type": "cell-based, Staphylococcus aureus", "text": "The integrity effect of antimicrobial peptide AP138L-arg26 on bacterial cell membranes was further verified, and the K^+ leakage assay was previously described (Li et al. [2020]). Briefly, the main procedures were as follows: Firstly, prepare the S. aureus CVCC 546 bacteria suspension at a concentration of 1 × 10^8 CFU/mL. […] Finally, the supernatants were detected using inductively coupled plasma mass spectrometry (ICP-MS) (SantaClara, CA, USA)."}, "[3]": {"tested_on": "intracellular S. aureus CVCC 546 in mouse macrophages RAW264.7 and bovine endometrial epithelial cells BNCC359233", "assay": "Intracellular antibacterial activity", "assay_type": "cell-based, Staphylococcus aureus", "conditions": "5 × MIC; n = 3", "text": "The method of intracellular bactericidal effect was described previously (Wang et al. [2018]). Only the number of cells and bacteria changed from 2.5 × 10^5 to 2 × 10^5 cells/mL."}, "[4]": {"tested_on": "mouse macrophages RAW264.7", "assay": "Cytotoxicity, MTT method", "assay_type": "cell-based", "conditions": "256 µg/mL; RAW264.7, MTT", "text": "The cytotoxicity of AP138L-arg26 to mouse macrophages RAW264.7 was detected by the thiazolyl blue tetrazolium bromide (MTT) method as described previously (Shen et al. [2021])."}, "[5]": {"tested_on": "Streptococcus dysgalactiae CVCC 3938", "assay": "MIC and MBC, broth microdilution", "assay_type": "cell-based", "description": "(§1) To determine the MIC values of AP138L-arg26, we used the broth microdilution technique as previously described (Andrews. [2001]; Wiegand et al. [2008]). In brief, AP138L-arg26 peptide were diluted from 1280 to 2.5 µg/mL and added to a 96-cells plate with 10 µL per well. The bacteria in the logarithmic stage were diluted to 10^5 CFU/mL with 90 µL per well. […] The MBC method was also based on the CLSI 2021 guidelines."}, "[6]": {"tested_on": "Streptococcus agalactiae CAU-FRI-2022-01", "assay": "MIC and MBC, broth microdilution", "assay_type": "cell-based", "description": "as §1"}, "[7]": {"tested_on": "Staphylococcus epidermidis ATCC 35984", "assay": "MIC and MBC, broth microdilution", "assay_type": "cell-based", "description": "as §1"}, "[8]": {"tested_on": "Streptococcus agalactiae ATCC 13813", "assay": "MIC and MBC, broth microdilution", "assay_type": "cell-based", "description": "as §1"}, "[9]": {"tested_on": "Streptococcus agalactiae CAU-FRI-2022-02", "assay": "MIC and MBC, broth microdilution", "assay_type": "cell-based", "description": "as §1"}, "[10]": {"tested_on": "Staphylococcus aureus E48", "assay": "MIC and MBC, broth microdilution", "assay_type": "cell-based", "description": "as §1"}, "[11]": {"tested_on": "Staphylococcus aureus CVCC 546", "assay": "MIC and MBC, broth microdilution", "assay_type": "cell-based", "description": "as §1"}, "[12]": {"tested_on": "Staphylococcus aureus ATCC 43300", "assay": "MIC and MBC, broth microdilution", "assay_type": "cell-based", "description": "as §1"}, "[13]": {"tested_on": "Staphylococcus epidermidis ATCC 12228", "assay": "MIC and MBC, broth microdilution", "assay_type": "cell-based", "description": "as §1"}, "[14]": {"tested_on": "Staphylococcus aureus ATCC 25923", "assay": "MIC and MBC, broth microdilution", "assay_type": "cell-based", "description": "as §1"}, "[15]": {"tested_on": "Staphylococcus aureus CAAS-FRI-2023-01", "assay": "MIC and MBC, broth microdilution", "assay_type": "cell-based", "description": "as §1"}, "[16]": {"tested_on": "Staphylococcus aureus CAAS-FRI-2023-02", "assay": "MIC and MBC, broth microdilution", "assay_type": "cell-based", "description": "as §1"}, "S. aureus CVCC 546 [17]": {"tested_on": "S. aureus CVCC 546", "assay": "Artificial gastric juice stability, MIC after treatment", "assay_type": "in vitro ADME, Staphylococcus aureus"}, "[18]": {"conditions": "99.99% of bacteria killed, plated on MHA"}, "[19]": {"conditions": "broth microdilution, 10^5 CFU/mL, 37 °C, 18 h"}}, "note": "Bridge positions count the residues as written; N and C are the ends. Peptide text beside a SMILES is read from it."}
{"smiles": "CC[C@H](C)[C@@H]1NC(=O)[C@H](CO)NC(=O)[C@H](CCCCN)NC(=O)[C@@H]2CSSC[C@@H](C(=O)N[C@@H](Cc3ccc(O)cc3)C(=O)O)NC(=O)[C@H](CCCCN)NC(=O)[C@@H]3CSSC[C@H](NC(=O)[C@H](CCCNC(=N)N)NC(=O)[C@H](CC(C)C)NC(=O)[C@H](CC(=O)O)NC(=O)[C@H](CC(=O)O)NC(=O)[C@H](CCC(=O)O)NC(=O)[C@H](CO)NC(=O)[C@H](Cc4c[nH]c5ccccc45)NC(=O)[C@@H]4CCCN4C(=O)CNC(=O)[C@H](CC(N)=O)NC(=O)[C@@H](NC(=O)CNC(=O)[C@H](Cc4ccccc4)NC(=O)CN)CSSC[C@H](NC(=O)[C@H](Cc4ccc(O)cc4)NC(=O)CNC(=O)CNC(=O)[C@H](CCCNC(=N)N)NC(=O)[C@H](Cc4ccc(O)cc4)NC(=O)CNC(=O)[C@H](CCCCN)NC1=O)C(=O)N[C@@H](C)C(=O)N[C@@H](CCCCN)C(=O)NCC(=O)NCC(=O)N[C@@H](Cc1ccccc1)C(=O)N[C@@H](C(C)C)C(=O)N3)C(=O)N[C@@H](Cc1c[nH]cn1)C(=O)N[C@@H](CCCNC(=N)N)C(=O)N[C@@H](Cc1c[nH]cn1)C(=O)N2", "note": "[AP138L-arg26] (H-GFGCNGPWSEDDLRCHRHCKSIKGYRGGYCAKGGFVCKCY-OH; disulfide 4-30, 15-37, 19-39; N-terminus and C-terminus assumed)", "values": [{"measurement": "cells stained red by PI", "setting": "S. aureus CVCC 546 [1]", "result": "more than 50%"}, {"measurement": "PAE", "setting": "S. aureus ATCC 43300; 1 × MIC, PAE = T − C", "result": 0.9, "unit": "h"}, {"measurement": "PAE", "setting": "S. aureus ATCC 43300; 2 × MIC, PAE = T − C", "result": 1.25, "unit": "h"}, {"measurement": "PAE", "setting": "S. aureus ATCC 43300; 4 × MIC, PAE = T − C", "result": 1.91, "unit": "h"}, {"measurement": "PAE", "setting": "S. aureus ATCC 43300; as given in the abstract, concentration not given", "result": 1.91, "unit": "h"}, {"measurement": "extracellular K+ leakage level", "setting": "S. aureus CVCC 546 [2]; 2 × MIC, 37 °C, 1 × 10^8 CFU/mL, ICP-MS, untreated 0.02 mg/L", "result": 0.05, "unit": "mg/L"}, {"measurement": "intracellular potassium leakage relative to control", "setting": "S. aureus CVCC 546 [2]; as given in the abstract", "result": 2.5, "unit": "fold"}, {"measurement": "intracellular bacteria killed", "setting": "[3]", "result": "more than 70%"}, {"measurement": "cell viability", "setting": "[4]", "result": "over 75%"}, {"measurement": "MBC", "setting": "[5]; [18]", "result": 32, "unit": "µg/mL"}, {"measurement": "MIC", "setting": "[5]; [19]", "result": 4, "unit": "µg/mL"}, {"measurement": "MBC", "setting": "[6]; [18]", "result": 32, "unit": "µg/mL"}, {"measurement": "MIC", "setting": "[6]; [19]", "result": 4, "unit": "µg/mL"}, {"measurement": "MBC", "setting": "[7]; [18]", "result": 16, "unit": "µg/mL"}, {"measurement": "MIC", "setting": "[7]; [19]", "result": 8, "unit": "µg/mL"}, {"measurement": "MBC", "setting": "[8]; [18]", "result": 8, "unit": "µg/mL"}, {"measurement": "MIC", "setting": "[8]; [19]", "result": 4, "unit": "µg/mL"}, {"measurement": "MBC", "setting": "[9]; [18]", "result": 32, "unit": "µg/mL"}, {"measurement": "MIC", "setting": "[9]; [19]", "result": 4, "unit": "µg/mL"}, {"measurement": "MBC", "setting": "[10]; [18]", "result": 8, "unit": "µg/mL"}, {"measurement": "MIC", "setting": "[10]; [19]", "result": 2, "unit": "µg/mL"}, {"measurement": "MBC", "setting": "[11]; [18]", "result": 32, "unit": "µg/mL"}, {"measurement": "MIC", "setting": "[11]; [19]", "result": 4, "unit": "µg/mL"}, {"measurement": "MBC", "setting": "[12]; [18]", "result": 8, "unit": "µg/mL"}, {"measurement": "MIC", "setting": "[12]; [19]", "result": 8, "unit": "µg/mL"}, {"measurement": "MBC", "setting": "[13]; [18]", "result": 16, "unit": "µg/mL"}, {"measurement": "MIC", "setting": "[13]; [19]", "result": 4, "unit": "µg/mL"}, {"measurement": "MBC", "setting": "[14]; [18]", "result": 32, "unit": "µg/mL"}, {"measurement": "MIC", "setting": "[14]; [19]", "result": 16, "unit": "µg/mL"}, {"measurement": "MBC", "setting": "[15]; [18]", "result": 16, "unit": "µg/mL"}, {"measurement": "MIC", "setting": "[15]; [19]", "result": 4, "unit": "µg/mL"}, {"measurement": "MBC", "setting": "[16]; [18]", "result": 32, "unit": "µg/mL"}, {"measurement": "MIC", "setting": "[16]; [19]", "result": 8, "unit": "µg/mL"}, {"measurement": "antimicrobial activity after gastric juice", "setting": "S. aureus CVCC 546 [17]; artificial gastric juice, MIC assay", "result": "unaffected"}, {"measurement": "MIC, Gastric juice (0.25 h)", "setting": "S. aureus CVCC 546 [17]; peptide in artificial gastric juice for 0.25 h, then MIC assay", "result": 4, "unit": "µg/mL"}, {"measurement": "MIC, Gastric juice (0.5 h)", "setting": "S. aureus CVCC 546 [17]; peptide in artificial gastric juice for 0.5 h, then MIC assay", "result": 4, "unit": "µg/mL"}, {"measurement": "MIC, Gastric juice (1 h)", "setting": "S. aureus CVCC 546 [17]; peptide in artificial gastric juice for 1 h, then MIC assay", "result": 4, "unit": "µg/mL"}, {"measurement": "MIC, Gastric juice (2 h)", "setting": "S. aureus CVCC 546 [17]; peptide in artificial gastric juice for 2 h, then MIC assay", "result": 8, "unit": "µg/mL"}]}
